Laboratory results as given in US20230085307A1, “PYRIDAZINONE COMPOUND AND HERBICIDE” (NISSAN CHEMICAL CORPORATION, priority 2019, published 2023).

How the values were obtained:
redroot pigweed [1] = assay: Test Example 4: herbicidal effect by soil treatment (Table 19, symbol N); format: in vivo, redroot pigweed (Amaranthus retroflexus); conditions: AAH 320 g/ha
In short: (§1)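 Emulsion of test compound, water-diluted to predetermined amount, sprayed on soil after sowing (seed depth ~1.5 cm, sterilized diluvial soil). Greenhouse, 25–30° C. Effect graded at three weeks post-spray.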

southern crabgrass [2] = assay: Test Example 4: herbicidal effect by soil treatment (Table 19, symbol F); format: in vivo, southern crabgrass (Digitaria ciliaris); conditions: AAH 320 g/ha
In short: as §1

blackgrass [3] = assay: Test Example 5: herbicidal effect by foliage application, plastic box (Table 20, symbol J); format: in vivo, blackgrass (Alopecurus myosuroides); conditions: foliage application, AAH 320 g/ha, three weeks after application
In short: (§2)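 Post-emergence foliar test in sterilized diluvial soil. Compound applied as water-diluted emulsion at a predetermined rate to 14-day-old plants; evaluation at three weeks.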

barnyard grass [4] = assay: Test Example 3: herbicidal effect by foliage application, Wagner pot (Table 18, symbol H); format: in vivo, barnyard grass (Echinochloa crus-galli); conditions: 320 g/ha
In short: (§3)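 Plants were sown in alluvial soil held under 0.1–0.5 cm standing water and grown 14 days in a greenhouse at 25–30 °C. An emulsifiable formulation, water-diluted to the set dose, was then sprayed onto the foliage, and effects were scored three weeks later using previously defined criteria.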

barnyard grass [5] = assay: Test Example 5: herbicidal effect by foliage application, plastic box (Table 20, symbol H); format: in vivo, barnyard grass (Echinochloa crus-galli); conditions: foliage application, AAH 320 g/ha, three weeks after application
In short: as §2

lambsquarters [6] = assay: Test Example 5: herbicidal effect by foliage application, plastic box (Table 20, symbol O); format: in vivo, lambsquarters (Chenopodium album); conditions: foliage application, AAH 320 g/ha, three weeks after application
In short: as §2

lambsquarters [7] = assay: Test Example 4: herbicidal effect by soil treatment (Table 19, symbol O); format: in vivo, lambsquarters (Chenopodium album); conditions: AAH 320 g/ha
In short: as §1

wild oat [8] = assay: Test Example 4: herbicidal effect by soil treatment (Table 19, symbol I); format: in vivo, wild oat (Avena fatua); conditions: AAH 320 g/ha
In short: as §1

green foxtail [9] = assay: Test Example 4: herbicidal effect by soil treatment (Table 19, symbol G); format: in vivo, green foxtail (Setaria viridis); conditions: AAH 320 g/ha
In short: as §1

blackgrass [10] = assay: Test Example 4: herbicidal effect by soil treatment (Table 19, symbol J); format: in vivo, blackgrass (Alopecurus myosuroides); conditions: AAH 320 g/ha
In short: as §1

windgrass [11] = assay: Test Example 5: herbicidal effect by foliage application, plastic box (Table 20, symbol L); format: in vivo, windgrass (Apera spica-venti); conditions: foliage application, AAH 320 g/ha, three weeks after application
In short: as §2

late watergrass = assay: Test Example 1: herbicidal activity, application before weed generation under submerged conditions (Table 16, symbol A); format: in vivo, late watergrass (Echinochloa oryzicola); conditions: 320 g/ha applied herbicide
In short: (§4)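 Alluvial soil was flooded to 4 cm depth, weed seeds were sown mixed and 2.5-leaf rice seedlings were transplanted. On sowing day, the compound's emulsion, diluted in water to a set dose, was applied to the water surface. Plants grew at 25–30 °C and were scored 0–5 after three weeks.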

persian speedwell [12] = assay: Test Example 5: herbicidal effect by foliage application, plastic box (Table 20, symbol R); format: in vivo, Persian speedwell (Veronica persica); conditions: foliage application, AAH 320 g/ha, three weeks after application
In short: as §2

chickweed [13] = assay: Test Example 5: herbicidal effect by foliage application, plastic box (Table 20, symbol P); format: in vivo, common chickweed (Stellaria media); conditions: foliage application, AAH 320 g/ha, three weeks after application
In short: as §2

chickweed [14] = assay: Test Example 4: herbicidal effect by soil treatment (Table 19, symbol P); format: in vivo, common chickweed (Stellaria media); conditions: AAH 320 g/ha
In short: as §1

persian speedwell [15] = assay: Test Example 4: herbicidal effect by soil treatment (Table 19, symbol R); format: in vivo, Persian speedwell (Veronica persica); conditions: AAH 320 g/ha
In short: as §1

Italian ryegrass [16] = assay: Test Example 4: herbicidal effect by soil treatment (Table 19, symbol K); format: in vivo, Italian ryegrass (Lolium multiflorum); conditions: AAH 320 g/ha
In short: as §1

velvetleaf [17] = assay: Test Example 5: herbicidal effect by foliage application, plastic box (Table 20, symbol M); format: in vivo, velvetleaf (Abutilon theophrasti); conditions: foliage application, AAH 320 g/ha, three weeks after application
In short: as §2

wild oat [18] = assay: Test Example 5: herbicidal effect by foliage application, plastic box (Table 20, symbol I); format: in vivo, wild oat (Avena fatua); conditions: foliage application, AAH 320 g/ha, three weeks after application
In short: as §2

oval-leafed pondweed = assay: Test Example 1: herbicidal activity, application before weed generation under submerged conditions (Table 16, symbol C); format: in vivo, oval-leafed pondweed (Monochoria vaginalis); conditions: 320 g/ha applied herbicide
In short: as §4

Japanese bulrush = assay: Test Example 1: herbicidal activity, application before weed generation under submerged conditions (Table 16, symbol B); format: in vivo, Japanese bulrush (Schoenoplectus juncoides); conditions: 320 g/ha applied herbicide
In short: as §4

windgrass [19] = assay: Test Example 4: herbicidal effect by soil treatment (Table 19, symbol L); format: in vivo, windgrass (Apera spica-venti); conditions: AAH 320 g/ha
In short: as §1

green foxtail [20] = assay: Test Example 5: herbicidal effect by foliage application, plastic box (Table 20, symbol G); format: in vivo, green foxtail (Setaria viridis); conditions: foliage application, AAH 320 g/ha, three weeks after application
In short: as §2

barnyard grass [21] = assay: Test Example 4: herbicidal effect by soil treatment (Table 19, symbol H); format: in vivo, barnyard grass (Echinochloa crus-galli); conditions: AAH 320 g/ha
In short: as §1

Chinese sprangletop = assay: Test Example 3: herbicidal effect by foliage application, Wagner pot (Table 18, symbol D); format: in vivo, chinese sprangletop (Leptochloa chinensis); conditions: 320 g/ha
In short: as §3

velvetleaf [22] = assay: Test Example 4: herbicidal effect by soil treatment (Table 19, symbol M); format: in vivo, velvetleaf (Abutilon theophrasti); conditions: AAH 320 g/ha
In short: as §1

southern crabgrass [23] = assay: Test Example 5: herbicidal effect by foliage application, plastic box (Table 20, symbol F); format: in vivo, southern crabgrass (Digitaria ciliaris); conditions: foliage application, AAH 320 g/ha, three weeks after application
In short: as §2

Italian ryegrass [24] = assay: Test Example 5: herbicidal effect by foliage application, plastic box (Table 20, symbol K); format: in vivo, Italian ryegrass (Lolium multiflorum); conditions: foliage application, AAH 320 g/ha, three weeks after application
In short: as §2

redroot pigweed [25] = assay: Test Example 5: herbicidal effect by foliage application, plastic box (Table 20, symbol N); format: in vivo, redroot pigweed (Amaranthus retroflexus); conditions: foliage application, AAH 320 g/ha, three weeks after application
In short: as §2

## CC(=O)COc1ccc(-c2sc3ccccc3c2-c2c(O)c(C)nn(C)c2=O)cc1 [1-143]
Redroot pigweed [1]
  N: redroot pigweed, herbicidal effect rating: 4 (Herbicidal rate of 70% or more and less than 90%)
Southern crabgrass [2]
  F: southern crabgrass, herbicidal effect rating: 3 (Herbicidal rate of 40% or more and less than 70%)
Blackgrass [3]
  J: blackgrass, herbicidal effect: 0 (Herbicidal rate of 5% or less (almost no effect))
Barnyard grass [4]
  herbicidal effect on H (barnyard grass), rating 0-5: 5 (Herbicidal rate of 90% or more (almost completely withered))
Barnyard grass [5]
  H: barnyard grass, herbicidal effect: 4 (Herbicidal rate of 70% or more and less than 90%)
Lambsquarters [6]
  O: lambsquarters, herbicidal effect: 4 (Herbicidal rate of 70% or more and less than 90%)
Lambsquarters [7]
  O: lambsquarters, herbicidal effect rating: 5 (Herbicidal rate of 90% or more (almost completely withered))
Wild oat [8]
  I: wild oat, herbicidal effect rating: 0 (Herbicidal rate of 5% or less (almost no effect))
Green foxtail [9]
  G: green foxtail, herbicidal effect rating: 4 (Herbicidal rate of 70% or more and less than 90%)
Blackgrass [10]
  J: blackgrass, herbicidal effect rating: 0 (Herbicidal rate of 5% or less (almost no effect))
Windgrass [11]
  L: windgrass, herbicidal effect: 4 (Herbicidal rate of 70% or more and less than 90%)
Late watergrass
  Herbicidal effect on A: late watergrass (grade 0-5): 3 (Herbicidal rate of 40% or more and less than 70%)
Persian speedwell [12]
  R: persian speedwell, herbicidal effect: 5 (Herbicidal rate of 90% or more (almost completely withered))
Chickweed [13]
  P: chickweed, herbicidal effect: 5 (Herbicidal rate of 90% or more (almost completely withered))
Chickweed [14]
  P: chickweed, herbicidal effect rating: 0 (Herbicidal rate of 5% or less (almost no effect))
Persian speedwell [15]
  R: persian speedwell, herbicidal effect rating: 3 (Herbicidal rate of 40% or more and less than 70%)
Italian ryegrass [16]
  K: Italian ryegrass, herbicidal effect rating: 0 (Herbicidal rate of 5% or less (almost no effect))
Velvetleaf [17]
  M: velvetleaf, herbicidal effect: 5 (Herbicidal rate of 90% or more (almost completely withered))
Wild oat [18]
  I: wild oat, herbicidal effect: 0 (Herbicidal rate of 5% or less (almost no effect))
oval-leafed pondweed
  Herbicidal effect on C: oval-leafed pondweed (grade 0-5): 0 (Herbicidal rate of 5% or less (almost no effect))
Japanese bulrush
  Herbicidal effect on B: Japanese bulrush (grade 0-5): 0 (Herbicidal rate of 5% or less (almost no effect))
Windgrass [19]
  L: windgrass, herbicidal effect rating: 0 (Herbicidal rate of 5% or less (almost no effect))
Green foxtail [20]
  G: green foxtail, herbicidal effect: 5 (Herbicidal rate of 90% or more (almost completely withered))
Barnyard grass [21]
  H: barnyard grass, herbicidal effect rating: 4 (Herbicidal rate of 70% or more and less than 90%)
Chinese sprangletop
  herbicidal effect on D (Chinese sprangletop), rating 0-5: 0 (Herbicidal rate of 5% or less (almost no effect))
Velvetleaf [22]
  M: velvetleaf, herbicidal effect rating: 4 (Herbicidal rate of 70% or more and less than 90%)
Southern crabgrass [23]
  F: southern crabgrass, herbicidal effect: 3 (Herbicidal rate of 40% or more and less than 70%)
Italian ryegrass [24]
  K: Italian ryegrass, herbicidal effect: 4 (Herbicidal rate of 70% or more and less than 90%)
Redroot pigweed [25]
  N: redroot pigweed, herbicidal effect: 4 (Herbicidal rate of 70% or more and less than 90%)
